In PubChem BioAssay AID192 (DTP/NCI, 2004) one finds T/C data, which are given here for 21 compounds.

This assay has as its system BDF1 mice, B16 melanoma ip, median survival T/C. Put plainly: NCI In Vivo Anticancer Drug Screen. Data for tumor model B16 Melanoma (intraperitoneal) in B6D2F1 (BDF1) mice. The note with it: endpoint: median survival time, higher = longer survival. The protocol:
The antitumor activity of compounds was measured in mice bearing transplantable tumors. Survival or tumor size were measured and the results are expressed as the measurement made in the treated group (T) divided by the measurement made in the vehicle treated control group (C). The tumor model used in this assay is B16 Melanoma (intraperitoneal) in B6D2F1 (BDF1) mice

[1] abbreviates: dose: 50.0 mg/kg/injection, schedule: Q01DX009 (ip), vehicle: Klucel (hydroxypropylcellulose) (HPC).
Where [2] appears, read: dose: 100.0 mg/kg/injection, schedule: Q01DX009 (ip), vehicle: Klucel (hydroxypropylcellulose) (HPC).
The mark [3] stands for this setting: dose: 200.0 mg/kg/injection, schedule: Q01DX009 (ip), vehicle: Klucel (hydroxypropylcellulose) (HPC).
Setting [4] is: dose: 100.0 mg/kg/injection, schedule: Q01DX009 (ip), vehicle: saline with Tween-80.
Where [5] appears, read: dose: 200.0 mg/kg/injection, schedule: Q01DX009 (ip), vehicle: saline with Tween-80.
Setting [6] is: dose: 100.0 mg/kg/injection, schedule: Q04DX003 (ip), vehicle: saline with Tween-80.

Inconclusive results and toxic doses are left out.

Regarding `Clc1nnc(Cl)c(Cl)c1Cl`, the T/C by setting is: (dose: 0.05 mg/kg/injection, schedule: Q01DX009 (ip), vehicle: saline with Tween-80) 109 % of control; (dose: 0.05 mg/kg/injection, schedule: Q04DX003 (ip), vehicle: saline) 102 % of control; (dose: 0.1 mg/kg/injection, schedule: Q01DX009 (ip), vehicle: saline with Tween-80) 100 % of control; (dose: 0.1 mg/kg/injection, schedule: Q04DX003 (ip), vehicle: saline) 91 % of control; (dose: 0.2 mg/kg/injection, schedule: Q01DX009 (ip), vehicle: saline with Tween-80) 100 % of control; (dose: 0.2 mg/kg/injection, schedule: Q04DX003 (ip), vehicle: saline) 89 % of control.

Take `CC1(CCl)OCCO1`: the T/C runs as follows: under setting [1], 96 % of control; under setting [2], 100 % of control; under setting [3], 100 % of control.

In the case of `O=C[C@@H](CO)O[C@H](C=O)n1cnc2c(=O)[nH]cnc21`, the T/C was 95 % of control (dose: 37.5 mg/kg/injection, schedule: Q01DX009 (ip), vehicle: saline); 95 % of control (dose: 75.0 mg/kg/injection, schedule: Q01DX009 (ip), vehicle: saline); 88 % of control (dose: 150.0 mg/kg/injection, schedule: Q01DX009 (ip), vehicle: saline).

With `C=CC(=O)N1CN(C(=O)C=C)CN(C(=O)C=C)C1`, the T/C was 110 % of control (dose: 0.78 mg/kg/injection, schedule: Q01DX009 (ip), vehicle: saline with Tween-80); 114 % of control (dose: 1.56 mg/kg/injection, schedule: Q01DX009 (ip), vehicle: saline with Tween-80); 116 % of control (dose: 3.12 mg/kg/injection, schedule: Q01DX009 (ip), vehicle: saline with Tween-80).

Regarding `C[C@]12CC[C@@H]3c4ccc(O)cc4CC[C@H]3[C@@H]1CC[C@@H]2O`, the T/C is, setting by setting: (dose: 6.25 mg/kg/injection, schedule: Q01DX009 (ip), vehicle: Klucel (hydroxypropylcellulose) (HPC)) 97 % of control; (dose: 12.5 mg/kg/injection, schedule: Q01DX009 (ip), vehicle: Klucel (hydroxypropylcellulose) (HPC)) 94 % of control; (dose: 25.0 mg/kg/injection, schedule: Q01DX009 (ip), vehicle: Klucel (hydroxypropylcellulose) (HPC)) 93 % of control; under setting [1], 97 % of control; under setting [2], 88 % of control; under setting [3], 87 % of control.

On to `COc1ccc(CCN2CSC(=S)N(CCc3ccc(OC)c(OC)c3)C2)cc1OC`, for which the T/C reads like this: under setting [2], 106 % of control; under setting [3], 95 % of control; (dose: 400.0 mg/kg/injection, schedule: Q01DX009 (ip), vehicle: Klucel (hydroxypropylcellulose) (HPC)) 95 % of control.

As for `Cc1ccc(NS(=O)(=O)c2cccc([N+](=O)[O-])c2)cc1Cl`, the T/C runs as follows: under setting [4], 107 % of control; under setting [5], 105 % of control; (dose: 400.0 mg/kg/injection, schedule: Q01DX009 (ip), vehicle: saline with Tween-80) 96 % of control.

For the compound `Fc1ccc(/C=C2/c3cc(Cl)ccc3-c3c(Cl)cc(Cl)cc32)cc1`, the T/C by setting is: (dose: 6.25 mg/kg/injection, schedule: Q01DX009 (ip), vehicle: saline with Tween-80) 90 % of control; (dose: 12.5 mg/kg/injection, schedule: Q01DX009 (ip), vehicle: saline with Tween-80) 90 % of control; (dose: 25.0 mg/kg/injection, schedule: Q01DX009 (ip), vehicle: saline with Tween-80) 95 % of control.

Regarding `CC[CH2][Pb]([CH2]CC)([CH2]CC)[O]C(=O)C(Cl)(Cl)Cl`, the T/C was 120 % of control (dose: 2.0 mg/kg/injection, schedule: Q01DX009 (ip), vehicle: Klucel (hydroxypropylcellulose) (HPC)) and 112 % of control (dose: 4.0 mg/kg/injection, schedule: Q01DX009 (ip), vehicle: Klucel (hydroxypropylcellulose) (HPC)).

With `C[Si](C)(C)c1c(F)c(F)cc(F)c1F`, the T/C is 98 % of control (dose: 100.0 mg/kg/injection, schedule: Q04DX003 (ip), vehicle: Klucel (hydroxypropylcellulose) (HPC)); 97 % of control (dose: 200.0 mg/kg/injection, schedule: Q04DX003 (ip), vehicle: Klucel (hydroxypropylcellulose) (HPC)); 97 % of control (dose: 400.0 mg/kg/injection, schedule: Q04DX003 (ip), vehicle: Klucel (hydroxypropylcellulose) (HPC)).

Consider `COc1cc2c(cc1OC)C(c1ccc(O)c(O)c1)CNC2` (stereo unspecified), for which the T/C was 99 % of control (dose: 50.0 mg/kg/injection, schedule: Q04DX003 (ip), vehicle: saline with Tween-80); 89 % of control under setting [6]; 90 % of control (dose: 200.0 mg/kg/injection, schedule: Q04DX003 (ip), vehicle: saline with Tween-80).

As to `COc1ccc(N=NN(C(C)=O)c2ccccc2)cc1`, the T/C was 102 % of control under setting [2] and 102 % of control under setting [3].

Consider `O=CN(O)CC(=O)O`, for which the T/C runs as follows: (dose: 100.0 mg/kg/injection, schedule: Q04DX003 (ip), vehicle: saline) 97 % of control; (dose: 200.0 mg/kg/injection, schedule: Q04DX003 (ip), vehicle: saline) 100 % of control; (dose: 400.0 mg/kg/injection, schedule: Q04DX003 (ip), vehicle: saline) 100 % of control.

In the case of `CCOC(=O)CCC[P+](c1ccccc1)(c1ccccc1)c1ccccc1`, the T/C was 117 % of control (dose: 5.0 mg/kg/injection, schedule: Q01DX009 (ip), vehicle: saline with Tween-80); 117 % of control (dose: 20.0 mg/kg/injection, schedule: Q01DX009 (ip), vehicle: saline with Tween-80); 121 % of control (dose: 40.0 mg/kg/injection, schedule: Q01DX009 (ip), vehicle: saline with Tween-80); 116 % of control (dose: 66.0 mg/kg/injection, schedule: Q01DX009 (ip), vehicle: saline with Tween-80); 113 % of control (dose: 80.0 mg/kg/injection, schedule: Q01DX009 (ip), vehicle: saline with Tween-80); 100 % of control under setting [4]. Moreover, the T/C (dose: 140.0 mg/kg/injection, schedule: Q01DX009 (ip), vehicle: saline with Tween-80) was 112 % of control; the T/C (dose: 160.0 mg/kg/injection, schedule: Q01DX009 (ip), vehicle: saline with Tween-80) was 116 % of control; the T/C (dose: 210.0 mg/kg/injection, schedule: Q01DX009 (ip), vehicle: saline with Tween-80) was 104 % of control.

For the compound `CN1CCc2cc3c(cc2C1)OCO3`, the T/C is 94 % of control (dose: 25.0 mg/kg/injection, schedule: Q01DX009 (ip), vehicle: saline); 93 % of control (dose: 50.0 mg/kg/injection, schedule: Q01DX009 (ip), vehicle: saline); 95 % of control (dose: 100.0 mg/kg/injection, schedule: Q01DX009 (ip), vehicle: saline).

`O=[N+]([O-])c1ccc2nc(-c3ccccc3)c(-c3ccccc3)nc2c1`: the T/C runs as follows: under setting [2], 102 % of control; under setting [3], 88 % of control.

For the compound `O=C(Nc1cccc(C(F)(F)F)c1)NC1CCCCC1`, the T/C by setting is: (dose: 100.0 mg/kg/injection, schedule: Q04DX003 (ip), vehicle: gum acacia) 87 % of control; (dose: 200.0 mg/kg/injection, schedule: Q04DX003 (ip), vehicle: gum acacia) 89 % of control; (dose: 400.0 mg/kg/injection, schedule: Q04DX003 (ip), vehicle: gum acacia) 87 % of control.

`Nc1nc(Br)c2ccccc2c1-c1ccc([N+](=O)[O-])cc1`: under setting [5], the T/C was 91 % of control.

Turning to `c1ccc2c(c1)ccc1c[n+]3ccccc3cc12`, the T/C is, setting by setting: (dose: 0.25 mg/kg/injection, schedule: Q01DX009 (ip), vehicle: saline) 114 % of control; (dose: 0.5 mg/kg/injection, schedule: Q01DX009 (ip), vehicle: saline) 100 % of control; (dose: 1.0 mg/kg/injection, schedule: Q01DX009 (ip), vehicle: saline) 97 % of control.

Turning to `COc1cc2c3c(c1)-c1nc4ccccc4cc1CN3CCC2`, the T/C (dose: 25.0 mg/kg/injection, schedule: Q04DX003 (ip), vehicle: alcohol) was 111 % of control; the T/C (dose: 50.0 mg/kg/injection, schedule: Q04DX003 (ip), vehicle: alcohol) is 104 % of control; the T/C (dose: 100.0 mg/kg/injection, schedule: Q04DX003 (ip), vehicle: alcohol) was 106 % of control; the T/C (dose: 200.0 mg/kg/injection, schedule: Q04DX003 (ip), vehicle: alcohol) was 98 % of control.

Take `CC(=O)NC1CCCCC1`: the T/C (dose: 33.0 mg/kg/injection, schedule: Q04DX003 (ip), vehicle: saline with Tween-80) was 100 % of control; the T/C (dose: 75.0 mg/kg/injection, schedule: Q04DX003 (ip), vehicle: saline with Tween-80) is 93 % of control; the T/C under setting [6] was 150 % of control.
